# Measured values from ChEMBL document CHEMBL3046389, “Synthesis and biological evaluation of novel hydroquinone dimethyl ethers as potential anticancer and antimicrobial agents” (2013).
# What was measured:
# Assay type in all cases: functional
# [1] = tested on: MOLT-4; assay: Anticancer activity against Homo sapiens (human) MOLT4 cells after 48 hr by SRB assay; settings: MOLT-4, 48 h; for CC50: read-out: LC50 (the source's name)
# [2] = tested on: 786-0; assay: Growth inhibition of Homo sapiens (human) 786-0 cells at 10 uM after 48 hr by SRB assay; settings: 786-0, 48 h, read-out: GI
# [3] = tested on: UACC-257; assay: Anticancer activity against Homo sapiens (human) UACC257 cells after 48 hr by SRB assay; settings: UACC-257, 48 h
# [4] = tested on: HOP-92; assay: Anticancer activity against Homo sapiens (human) HOP92 cells after 48 hr by SRB assay; settings: HOP-92, 48 h; for CC50: read-out: LC50 (the source's name)
# [5] = tested on: A549; assay: Growth inhibition of Homo sapiens (human) A549/ATCC cells at 10 uM after 48 hr by SRB assay; settings: A549, 48 h, read-out: GI
# [6] = tested on: MDA-MB-231; assay: Anticancer activity against Homo sapiens (human) MDA-MB-231/ATCC cells after 48 hr by SRB assay; settings: MDA-MB-231, 48 h; for CC50: read-out: LC50 (the source's name)
# [7] = tested on: SNB-19; assay: Growth inhibition of Homo sapiens (human) SNB19 cells at 10 uM after 48 hr by SRB assay; settings: SNB-19, 48 h, read-out: GI
# [8] = tested on: HCT-15; assay: Growth inhibition of Homo sapiens (human) HCT15 cells at 10 uM after 48 hr by SRB assay; settings: HCT-15, 48 h, read-out: GI
# [9] = tested on: OVCAR-8; assay: Anticancer activity against Homo sapiens (human) OVCAR8 cells after 48 hr by SRB assay; settings: OVCAR-8, 48 h
# [10] = tested on: HT-29; assay: Growth inhibition of Homo sapiens (human) HT-29 cells at 10 uM after 48 hr by SRB assay; settings: HT-29, 48 h, read-out: GI
# [11] = tested on: SNB-75; assay: Anticancer activity against Homo sapiens (human) SNB75 cells after 48 hr by SRB assay; settings: SNB-75, 48 h; for CC50: read-out: LC50 (the source's name)
# [12] = tested on: Malme-3M; assay: Growth inhibition of Homo sapiens (human) MALME-3M cells at 10 uM after 48 hr by SRB assay; settings: read-out: GI
# [13] = tested on: SW-620; assay: Growth inhibition of Homo sapiens (human) SW620 cells at 10 uM after 48 hr by SRB assay; settings: SW-620, 48 h, read-out: GI
# [14] = tested on: RXF 393; assay: Anticancer activity against Homo sapiens (human) RXF393 cells after 48 hr by SRB assay; settings: RXF 393, 48 h
# [15] = tested on: COLO 205; assay: Anticancer activity against Homo sapiens (human) COLO205 cells after 48 hr by SRB assay; settings: COLO 205, 48 h; for CC50: read-out: LC50 (the source's name)
# [16] = tested on: Pseudomonas aeruginosa; assay: Antimicrobial activity against Pseudomonas aeruginosa ATCC 10145 after 48 hr by two-fold serial broth dilution method; settings: ATCC 10145, 48 h
# [17] = tested on: HCT-15; assay: Anticancer activity against Homo sapiens (human) HCT15 cells after 48 hr by SRB assay; settings: HCT-15, 48 h; for CC50: read-out: LC50 (the source's name)
# [18] = tested on: T47D; assay: Growth inhibition of Homo sapiens (human) T47D cells at 10 uM after 48 hr by SRB assay; settings: read-out: GI
# [19] = tested on: SF-295; assay: Anticancer activity against Homo sapiens (human) SF295 cells after 48 hr by SRB assay; settings: SF-295, 48 h; for CC50: read-out: LC50 (the source's name)
# [20] = tested on: LOX IMVI; assay: Anticancer activity against Homo sapiens (human) LOXIMVI cells after 48 hr by SRB assay; settings: for CC50: read-out: LC50 (the source's name)
# [21] = tested on: CAKI-1; assay: Anticancer activity against Homo sapiens (human) CAKI-1 cells after 48 hr by SRB assay; settings: CAKI-1, 48 h; for CC50: read-out: LC50 (the source's name)
# [22] = tested on: RXF 393; assay: Growth inhibition of Homo sapiens (human) RXF393 cells at 10 uM after 48 hr by SRB assay; settings: RXF 393, 48 h, read-out: GI
# [23] = tested on: KM12; assay: Growth inhibition of Homo sapiens (human) KM12 cells at 10 uM after 48 hr by SRB assay; settings: KM12, 48 h, read-out: GI
# [24] = tested on: BT-549; assay: Growth inhibition of Homo sapiens (human) BT549 cells at 10 uM after 48 hr by SRB assay; settings: BT-549, 48 h, read-out: GI
# [25] = tested on: Malme-3M; assay: Anticancer activity against Homo sapiens (human) MALME-3M cells after 48 hr by SRB assay; settings: for CC50: read-out: LC50 (the source's name)
# [26] = tested on: SN12C; assay: Growth inhibition of Homo sapiens (human) SN12C cells at 10 uM after 48 hr by SRB assay; settings: read-out: GI
# [27] = tested on: A498; assay: Anticancer activity against Homo sapiens (human) A498 cells after 48 hr by SRB assay; settings: A498, 48 h
# [28] = tested on: MOLT-4; assay: Growth inhibition of Homo sapiens (human) MOLT4 cells at 10 uM after 48 hr by SRB assay; settings: MOLT-4, 48 h, read-out: GI
# [29] = tested on: EKVX; assay: Anticancer activity against Homo sapiens (human) EKVX cells after 48 hr by SRB assay; settings: for CC50: read-out: LC50 (the source's name)
# [30] = tested on: Bacillus subtilis; assay: Antimicrobial activity against Bacillus subtilis ATCC 6633 after 48 hr by two-fold serial broth dilution method; settings: ATCC 6633, 48 h
# [31] = tested on: Candida albicans; assay: Antimicrobial activity against Candida albicans DSM 70014 after 48 hr by two-fold serial broth dilution method; settings: DSM 70014, 48 h
# [32] = tested on: SF-539; assay: Anticancer activity against Homo sapiens (human) SF539 cells after 48 hr by SRB assay; settings: SF-539, 48 h; for CC50: read-out: LC50 (the source's name)
# [33] = tested on: OVCAR-5; assay: Anticancer activity against Homo sapiens (human) OVCAR5 cells after 48 hr by SRB assay; settings: OVCAR-5, 48 h; for CC50: read-out: LC50 (the source's name)
# [34] = tested on: DU-145; assay: Anticancer activity against Homo sapiens (human) DU145 cells after 48 hr by SRB assay; settings: DU-145, 48 h
smiles,measurement,setting,value
COc1ccc(OC)c(/C=C/C(=O)N/N=C/c2ccccc2)c1,GI50,[1],4.45 µM
same,TGI,[1],> 100 µM
same,CC50,[1],> 100 µM
same,inhibition of growth at 10 µM,[2],45.7%
same,GI50,[3],5.76 µM
same,LC50 (50% lethal concentration),[3],> 100 µM
same,TGI,[3],33.6 µM
same,GI50,[4],1.56 µM
same,TGI,[4],13.3 µM
same,CC50,[4],> 100 µM
same,inhibition of growth at 10 µM,[5],51.6%
same,GI50,[6],7.24 µM
same,TGI,[6],> 100 µM
same,CC50,[6],> 100 µM
same,inhibition of growth at 10 µM,[7],52.1%
same,inhibition of growth at 10 µM,[8],58%
same,GI50,[9],5.44 µM
same,LC50,[9],> 100 µM
same,TGI,[9],94.6 µM
same,inhibition of growth at 10 µM,[10],79.3%
same,GI50,[11],4.39 µM
same,TGI,[11],37.3 µM
same,CC50,[11],> 100 µM
same,inhibition of growth at 10 µM,[12],41%
same,inhibition of growth at 10 µM,[13],71.3%
same,GI50,[14],3.9 µM
same,LC50,[14],> 100 µM
same,TGI,[14],26.6 µM
same,GI50,[15],4.8 µM
same,TGI,[15],35.1 µM
same,CC50,[15],> 100 µM
same,MBC,[16],100 µg/mL
same,MIC,[16],50 µg/mL
same,GI50,[17],3.62 µM
same,TGI,[17],> 100 µM
same,CC50,[17],> 100 µM
same,inhibition of growth at 10 µM,[18],60.3%
same,GI50,[19],1 µM
same,TGI,[19],11.1 µM
same,CC50,[19],> 100 µM
same,GI50,[20],4.11 µM
same,TGI,[20],> 100 µM
same,CC50,[20],> 100 µM
same,GI50,[21],0.443 µM
same,TGI,[21],6.66 µM
same,CC50,[21],> 100 µM
same,inhibition of growth at 10 µM,[22],54.6%
same,inhibition of growth at 10 µM,[23],69%
same,inhibition of growth at 10 µM,[24],39.2%
same,GI50,[25],2.12 µM
same,TGI,[25],> 100 µM
same,CC50,[25],> 100 µM
same,inhibition of growth at 10 µM,[26],47.9%
same,GI50,[27],12 µM
same,LC50,[27],> 100 µM
same,TGI,[27],> 100 µM
same,inhibition of growth at 10 µM,[28],63.5%
same,GI50,[29],1.59 µM
same,TGI,[29],59.5 µM
same,CC50,[29],> 100 µM
same,MBC,[30],100 µg/mL
same,MIC,[30],50 µg/mL
same,MFC,[31],100 µg/mL
same,MIC,[31],100 µg/mL
same,GI50,[32],4.42 µM
same,TGI,[32],25.1 µM
same,CC50,[32],> 100 µM
same,GI50,[33],18 µM
same,TGI,[33],> 100 µM
same,CC50,[33],> 100 µM
COc1ccc(OC)c(/C=C/c2nnc(S)n2-c2ccc(Cl)cc2)c1,GI50,[1],7.74 µM
same,TGI,[1],> 100 µM
same,CC50,[1],> 100 µM
same,inhibition of growth at 10 µM,[2],41.1%
same,GI50,[3],> 100 µM
same,LC50 (50% lethal concentration),[3],> 100 µM
same,TGI,[3],> 100 µM
same,GI50,[4],3.56 µM
same,TGI,[4],> 100 µM
same,CC50,[4],> 100 µM
same,inhibition of growth at 10 µM,[5],33.7%
same,GI50,[6],14.5 µM
same,TGI,[6],> 100 µM
same,CC50,[6],> 100 µM
same,inhibition of growth at 10 µM,[7],48.8%
same,inhibition of growth at 10 µM,[8],58.8%
same,GI50,[9],28.4 µM
same,LC50,[9],> 100 µM
same,TGI,[9],> 100 µM
same,inhibition of growth at 10 µM,[10],34.6%
same,GI50,[11],2.85 µM
same,TGI,[11],> 100 µM
same,CC50,[11],> 100 µM
same,inhibition of growth at 10 µM,[12],70.2%
same,inhibition of growth at 10 µM,[13],49.6%
same,GI50,[14],3.38 µM
same,LC50,[14],> 100 µM
same,TGI,[14],38.7 µM
same,GI50,[15],12.4 µM
same,TGI,[15],68.4 µM
same,CC50,[15],> 100 µM
same,MBC,[16],100 µg/mL
same,MIC,[16],50 µg/mL
same,GI50,[17],4.39 µM
same,TGI,[17],> 100 µM
same,CC50,[17],> 100 µM
same,GI50,[19],4.16 µM
same,TGI,[19],> 100 µM
same,CC50,[19],> 100 µM
same,GI50,[20],5.02 µM
same,TGI,[20],> 100 µM
same,CC50,[20],> 100 µM
same,GI50,[21],2.8 µM
same,CC50,[21],> 100 µM
same,inhibition of growth at 10 µM,[22],48.1%
same,inhibition of growth at 10 µM,[23],59.1%
same,inhibition of growth at 10 µM,[24],32.8%
same,GI50,[34],19.1 µM
same,TGI,[34],> 100 µM
same,CC50,[34]; read-out: LC50 (the source's name),> 100 µM
same,GI50,[25],70.6 µM
same,TGI,[25],> 100 µM
same,CC50,[25],> 100 µM
same,inhibition of growth at 10 µM,[26],33.8%
same,GI50,[27],6.66 µM
same,LC50,[27],> 100 µM
same,TGI,[27],> 100 µM
same,inhibition of growth at 10 µM,[28],47.2%
same,GI50,[29],30 µM
same,TGI,[29],> 100 µM
same,CC50,[29],> 100 µM
same,MBC,[30],100 µg/mL
same,MIC,[30],100 µg/mL
same,MFC,[31],100 µg/mL
same,MIC,[31],100 µg/mL
same,GI50,[32],4.05 µM
same,TGI,[32],97.9 µM
same,CC50,[32],> 100 µM
same,GI50,[33],70.3 µM
same,TGI,[33],> 100 µM
same,CC50,[33],> 100 µM
